Assay results from patent US20230233584A1, “EXTENDED RELEASE 5-HT RECEPTOR AGONISTS FOR NEUROLOGICAL CONDITIONS” (Diamond Therapeutics Inc., priority 2020, published 2023).

Assays:
Type in all cases: in vivo
Long Evans rats [1] = assay: Progressive ratio (PR) test, Study A; conditions: for food responding: low responder subgroup
Method: General: Experiments were conducted to test psilocybin doses in the range of 0.01-0.2 mg/kg psilocybin administered S.C. across progressive ratio (PR) and 5-choice serial reaction time task (5CSRTT) to examine the effect of psilocybin on endophenotypes of motivation and attention. In each study, a population of out-bred Long Evans rats was first tested as a group for response to the PR and 5CSRTT. Each group was then divided into subgroups by tertiles according to performance, and then exposed to various dose levels immediately prior to re-testing at various psilocybin dose levels.
The PR test is used to answer how willing the test subject is to work for food (i.e. test of motivation). A single 45 mg food pellet (i.e. reinforcer) is made available to the test animal based on lever press response. To obtain each successive pellet, the animal must make increasingly more lever presses. Typically, a progression of 2, 4, 6, 9, 12, 15, 20, 25, 32, 40, 50, 62, 77, 95, 118, etc. is used, derived from the equation:
ratio=[5×e^(0.2×reinforcer #)−5]
At some point, the animal gives up as the motor demands to obtain a single pellet are not deemed worthwhile (i.e. animal reaches “break point” defined as animal's failure to earn a food pellet in 20 minutes).
Study A: Psilocybin was administered to rats S.C. at doses of 0.05, 0.1 and 0.2 mg/kg.
Rats were then sub-grouped into tertiles based on the number of lever presses for food at baseline, so that within the test population of 36 animals, 12 animals were identified as low responders, characterized by low motivation and potentially corresponding to low motivation endophenotype representative of clinical depression. Twelve animals were identified as high responders. There was a statistically significant difference between the high and low responders. […] This represents a motivational enhancing effect of psilocybin at the 0.05 mg/kg dose in the cohort corresponding to a low motivation endophenotype representative of clinical depression.

rats = assay: Locomotor activity, distance travelled
Description: Stimulant drugs cause far larger increases in distance travelled with escalating doses, reflective of a direct motor stimulant property not seen with psilocybin.

[2] = Body weight during 12-day minipump study; conditions: rats
Long Evans rats [3] = assay: 5CSRTT, acute dosing, 10 s ITI, premature (PREM) and perseverant (PSV) responses
Description: Using a longer duration between stimulus and reward, the 5CSRTT study measures premature (PREM) and perseverant (PSV) responses. PREM/PSV responses were increased by increasing the ITI from 5 s (baseline) to 10 s (test condition). […] Both PREM and PSV behaviors are examples of executive cognitive function, likely involving areas of the prefrontal cortex, a brain region rich in 5-HT2A receptors.

5-HT2A receptor activity = assay: Dose finding: behavioral syndrome, wet dog shakes (WDS) and back muscle contractions (BMC); conditions: rats
Method: Psilocybin was tested at a dose range of 0.03-10.0 mg/kg administered subcutaneously (S.C.) Behavioral syndrome including wet dog shakes (WDS) and back muscle contractions (BMC) are characteristic of 5-HT2A receptor activity and potentially indicative of psychomotor signs. […] There is a parallel between behaviors such as WDS in rats and hallucination in humans (Behavioral Neurobiology of Psychedelic Drugs, Halberstadt, Adam, Vollenweider, Franz X., Nichols, David E. (Eds.), Springer, 2018, p 161).

CN(C)CCc1c[nH]c2cccc(OP(=O)(O)O)c12 [psilocybin, 4-phosphoryloxy-N,N-dimethyltryptamine]
food responding (Long Evans rats [1]; 0.05 mg/kg): increase in food responding | number of lever presses and break point (Long Evans rats [1]; 0.05 mg/kg, low responders, P<0.05 vs. vehicle): significant increase | session duration (Long Evans rats [1]; 0.05 mg/kg, low responders, P=0.07 vs. vehicle): 10.8 ± 1.9 min | food responding (Long Evans rats [1]; 0.1 mg/kg): did not produce an increase in food responding | number of lever presses or break points (Long Evans rats [1]; 0.05, 0.1 and 0.2 mg/kg S.C., entire study population of 36 rats): None of these doses were observed to cause obvious changes | response in PR test (Long Evans rats [1]; 0.05-0.2 mg/kg S.C., high responder subgroup): no effect on response | motor activity distance travelled (rats; high doses): slightly decreased distanced travelled | motor activity distance travelled (rats; low doses): increase in motor activity distance travelled | Body Weight, Day 1 vs. Day 12, Average ([2]; Psilocybin 4 mg/mL minipump): 20.6 | Body Weight, Day 1 vs. Day 12, Average ([2]; Psilocybin 6 mg/mL minipump): 19.3 | Body Weight, Day 1 vs. Day 12, Average ([2]; Psilocybin 8 mg/mL minipump): 24.4 | body weight over the study course ([2]; psilocybin minipump, 12 day study course): gaining body weight | weight gain compared with placebo treated animals ([2]; psilocybin minipump, 12 days): gained weight to a lesser amount | PREM and PSV responses (Long Evans rats [3]; 0.05 mg/kg S.C., 24 rats, p=0.05): increase | premature responses and perseverative responses (Long Evans rats [3]; 0.05 and 0.1 mg/kg, low responders (N=8), p<0.01 vs vehicle): marked increases | signs of behavioral syndrome (WDS/BMC) (5-HT2A receptor activity; 0.3 mg/kg I.P and higher): significant signs of behavior syndrome | signs of behavioral syndrome (WDS/BMC) (5-HT2A receptor activity; 0.03-0.1 mg/kg S.C.): no signs of behavioral syndrome
